# According to patent US8962658B2, “Fluoralkylcarbonyl-oxadiazoles” (Universite de Droit et de la Sante de Lille 2, priority 2011, dated 2015):
# What was measured:
# [1] = pH 7.4, PBS
# [2] = Pharmacokinetic experiments (DMSO formulation); assay type: in vivo, Swiss mice; settings: mice, oral, dose 20 mg/kg, vehicle 100% DMSO
# Description: Pharmacokinetic experiments (DMSO Formulation). Compounds were administered at 20 mg per kg body weight by oral route to Swiss mice (22-24 g) (WIV-ISP breeding). Three mice per time point were anesthetized with ketamine-xyalzine and bled them at 10 min, 20 min, 30 min, 1 h, 2 h, 3 h and 6 h after administration of a single dose of ligands. Blood was collected from the brachial region on lithium heparinated tubes in order to prevent coagulation.
# (§1) Plasma samples preparation. Plasma samples were thawed on ice. Aliquots of 50 μL were precipitated with 450 μL of ice cold acetonitrile containing internal standard (1 μM). The samples were vigorously mixed with a Vortex, centrifuged at 10000 rpm, at 4° C. for 10 min and the supernatants were transferred into Matrix tubes for LC-MS-MS analysis. Spiked standard solutions (10, 50, 100, 500, 1000, 5000, 10000 and 50000 nM) were prepared the same way.
# [3] = in vitro; settings: CD-1, mouse, microsomes, pH 7.4
# [4] = test system: M. tuberculosis H37Rv-GFP in Raw264.7 macrophages; assay: microbe, parasite or virus in culture; assay type: cell-based; settings: Mycobacterium tuberculosis
# [5] = Pharmacokinetic experiments (aqueous hydroxypropyl-β-cyclodextrin formulation); assay type: in vivo, CD1 female mice; settings: mice, single oral dose 20 mg/kg, vehicle aqueous 100 mM hydroxypropyl-β-cyclodextrin
# Description: Pharmacokinetic experiments (aqueous hydroxypropyl-β-cyclodextrin Formulation). Compounds solubilized in aqueous hydroxypropyl-β-cyclodextrin solution (100 mM) were administered in single dose (20 mg/kg) to CD1 female mice (25-30 g) (Charles River Laboratories). […] Mice were immediately sacrificed by cervical dislocation. Three mice were dosed per kinetics time point.
# as §1
# [6] = physchem; settings: pH 7.4, aqueous buffer, kinetic from dmso stock
# [7] = RAW264.7, Table 1, […], mean of two experiments
structure (smiles),measurement,setting,value
O=C(CCC(F)(F)F)N1CC[C@@H](c2nc(-c3cccs3)no2)C1 [Compound 2],Solubility,[1],80 µg/mL
same,AUC∞,[2],100 ng·h/mL
same,microsomal CLint,[3],4 µL/min/mg
same,EC50,[4]; RAW264.7,400 nM
"O=C(CCC(F)(F)F)N1CCC(c2nc(-c3cccs3)no2)CC1 [Compound 3, 4-4-4-trifluoro-1-[4-(3-thiophen-2-yl-[1,2,4]oxadiazol-5-yl)-piperidin-1-yl]butan-1-one, reference compound]",Solubility,[1],150 µg/mL
same,microsomal CLint,[3],213 µL/min/mg
same,EC50,[4]; RAW264.7,100 nM
same,EC50,[4]; [7],100 nM
"O=C(CCC(F)(F)F)N1CCC(c2nc(-c3nccs3)no2)CC1 [Compound 5, 4,4,4-Trifluoro-1-[4-(3-thiazol-2-yl-1,2,4-oxadiazol-5-yl)-piperidin-1-yl]-butan-1-one]",Solubility,[1],300 µg/mL
same,AUC∞,[2],73500 ng·h/mL
same,microsomal CLint,[3],37 µL/min/mg
same,EC50,[4]; RAW264.7,≤ 500 nM
same,EC50,[4]; [7],500 nM
same,AUC∞,[5],100500 ng·h/mL
"COc1ccc2nc(-c3noc(C4CCN(C(=O)CCC(F)(F)F)CC4)n3)sc2c1 [Compound 7, 4,4,4-Trifluoro-1-{4-[3-(6-methoxy-benzothiazol-2-yl)-1,2,4-oxadiazol-5-yl]-piperidin-1-yl}-butan-1-one]",Solubility,[1],6 µg/mL
same,microsomal CLint,[3],197 µL/min/mg
same,EC50,[4]; [7],200 nM
"O=C(CCC(F)(F)F)N1CCC(c2nc(-c3ccccc3)no2)CC1 [Compound 8, 4,4,4-Trifluoro-1-[4-(3-phenyl-1,2,4-oxadiazol-5-yl)-piperidin-1-yl]-butan-1-one]",Solubility,[1],40 µg/mL
same,EC50,[4]; RAW264.7,≤ 500 nM
same,EC50,[4]; [7],500 nM
"O=C(CCC(F)(F)F)N1CCC(c2nc(C3CCCC3)no2)CC1 [Compound 32, 1-[4-(3-Cyclopentyl-1,2,4-oxadiazol-5-yl)-piperidin-1-yl]-4,4,4-trifluoro-butan-1-one]",EC50,[4]; [7],800 nM
"O=C(CCC(F)(F)F)N1CC[C@@H](c2nc(-c3nccs3)no2)C1 [Compound 41, 4,4,4-trifluoro-1-[(3R)-3-[3-(1,3-thiazol-2-yl)-1,2,4-oxadiazol-5-yl]pyrrolidin-1-yl]butan-1-one]",EC50,[4]; RAW264.7,6300 nM
"O=C(CCCC(F)(F)F)N1CCC(c2nc(-c3nccs3)no2)CC1 [Compound 42, 5,5,5-Trifluoro-1-[4-(3-thiazol-2-yl-1,2,4-oxadiazol-5-yl)-piperidin-1-yl]-pentan-1-one]",Solubility,[1],410 µg/mL
same,microsomal CLint,[3],15 µL/min/mg
same,EC50,[4]; RAW264.7,60 nM
same,AUC∞,[5],98600 ng·h/mL
"O=C(CCCC(F)(F)F)N1CC[C@@H](c2nc(-c3cccs3)no2)C1 [Compound 43, 5,5,5-trifluoro-1-[(3R)-3-[3-(thiophen-2-yl)-1,2,4-oxadiazol-5-yl]pyrrolidin-1-yl]pentan-1-one]",microsomal CLint at 1 μM,[3],297 µL/min/mg
same,EC50,[4]; RAW264.7,100 nM
same,solubility at 24 h,[6],237 µg/mL
"O=C(CCCC(F)(F)F)N1CCC(c2nc(-c3cccs3)no2)CC1 [Compound 44, 5,5,5-trifluoro-1-{4-[3-(thiophen-2-yl)-1,2,4-oxadiazol-5-yl]piperidin-1-yl}pentan-1-one]",EC50,[4]; RAW264.7,70 nM
"O=C(CCCC(F)(F)F)N1CCC(c2nc(-c3ccccc3)no2)CC1 [Compound 45, 5,5,5-trifluoro-1-[4-(3-phenyl-1,2,4-oxadiazol-5-yl)piperidin-1-yl]pentan-1-one]",microsomal CLint at 1 μM,[3],73 µL/min/mg
same,EC50,[4]; RAW264.7,100 nM
same,solubility at 24 h,[6],80 µg/mL
"CS(=O)(=O)c1ccc(-c2noc(C3CCN(C(=O)CCCC(F)(F)F)CC3)n2)cc1 [Compound 46, 5,5,5-trifluoro-1-{4-[3-(4-methanesulfonylphenyl)-1,2,4-oxadiazol-5-yl]piperidin-1-yl}pentan-1-one]",microsomal CLint at 1 μM,[3],14 µL/min/mg
same,EC50,[4]; RAW264.7,20 nM
same,solubility at 24 h,[6],80 µg/mL
